Holding throughout (assay type): cell-based
The target of one assay is GSPT1 (Homo sapiens, UniProt P15170+Q96SW2). The experiment in a line: GSPT1 Cellular Degradation Assay (DF15-GSPT1-ePL). More on the design: expressed in transfected cells. The following applies: DF15-GSPT1-ePL cells, 20 hours. The method in brief:
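DC50 and Dmax were derived from chemiluminescence, with 75% response set by the reference compound at […]. Readout was ePL enzyme-fragment complementation in a DF15 line expressing chimeric GSPT1. Cells were exposed to compound for 20 h at 37 °C in RPMI 1640 with 10% FBS, cooled 30 min, then lysed with substrate for 60 min.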

A further assay has as its system Phospho-Rb (Ser807/811). The experiment in a line: Phospho-Retinoblastoma (pRB) Cellular Assay. The note with it: Homo sapiens, OVCAR-3, NIH OVCAR3 cells, 24 hours; for IC50: concentration giving 50% response; for Emax: maximum response, reference compound at 10 μM = 100%, read-out: pRB Ymax. The method in brief:
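Phospho-Rb (Ser807/811) kit read-out on EnVision after lysis (≥4 h, room temperature, dark) of OVCAR3 cells exposed to compound dilutions for 24 h. IC50 and maximum response Ymax are relative to a 10 μM reference compound defining 100%.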

The target of a further assay is Cyclin E1 (Homo sapiens, UniProt P24864+Q96SW2). The experiment in a line: Cyclin E1 Cellular Degradation Assay (MSD). Details: endogenous in cells; host or cells: OVCAR3. The following applies: for DC50 / Dmax: Cyclin E1 cellular degradation; for Dmax: maximum degradation; for Ratio of GSPT1 DC50/Cyclin E1 DC50: selectivity for degradation of Cyclin E1 over GSPT1. The method in brief:
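Cyclin E1 remaining after 24 h compound exposure of OVCAR3 cells was quantified in lysates by electrochemiluminescent MSD sandwich assay. DC50 (50% response concentration) and Dmax (maximum response) were calculated, with 110% response set by a reference compound at […].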

Broadly, the DC50 is the midpoint of the concentration-degradation curve. Higher therefore signals degradation only at high concentration. A word on the Dmax: it is the greatest extent of degradation seen. Broadly, the IC50 is the midpoint of a concentration-inhibition curve.

Chain of Cyclin E1 (P24864 whole entry): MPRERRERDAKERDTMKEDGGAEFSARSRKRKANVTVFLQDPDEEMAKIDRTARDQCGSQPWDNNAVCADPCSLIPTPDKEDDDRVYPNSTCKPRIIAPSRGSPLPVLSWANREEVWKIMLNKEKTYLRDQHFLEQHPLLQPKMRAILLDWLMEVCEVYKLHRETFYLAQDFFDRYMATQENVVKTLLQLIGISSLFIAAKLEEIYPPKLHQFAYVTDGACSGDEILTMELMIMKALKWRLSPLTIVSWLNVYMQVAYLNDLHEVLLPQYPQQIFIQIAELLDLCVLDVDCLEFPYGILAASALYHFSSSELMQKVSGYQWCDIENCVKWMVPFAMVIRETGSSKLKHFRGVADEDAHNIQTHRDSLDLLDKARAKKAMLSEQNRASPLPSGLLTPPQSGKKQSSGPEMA
Chain of Cyclin E1 (Q96SW2 whole entry): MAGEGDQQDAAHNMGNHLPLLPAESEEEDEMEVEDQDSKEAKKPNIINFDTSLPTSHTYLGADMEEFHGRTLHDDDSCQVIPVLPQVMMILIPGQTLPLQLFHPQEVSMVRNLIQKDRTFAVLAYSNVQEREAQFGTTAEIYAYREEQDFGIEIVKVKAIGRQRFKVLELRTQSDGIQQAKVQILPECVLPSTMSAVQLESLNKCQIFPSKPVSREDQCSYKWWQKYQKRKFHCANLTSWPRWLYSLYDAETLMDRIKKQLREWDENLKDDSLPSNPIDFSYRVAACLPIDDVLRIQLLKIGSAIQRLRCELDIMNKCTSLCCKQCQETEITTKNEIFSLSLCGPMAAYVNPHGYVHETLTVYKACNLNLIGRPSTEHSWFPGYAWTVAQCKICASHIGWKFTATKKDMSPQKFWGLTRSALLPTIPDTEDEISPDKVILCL
Chain of Cyclin E1 (Q16531 whole entry partner): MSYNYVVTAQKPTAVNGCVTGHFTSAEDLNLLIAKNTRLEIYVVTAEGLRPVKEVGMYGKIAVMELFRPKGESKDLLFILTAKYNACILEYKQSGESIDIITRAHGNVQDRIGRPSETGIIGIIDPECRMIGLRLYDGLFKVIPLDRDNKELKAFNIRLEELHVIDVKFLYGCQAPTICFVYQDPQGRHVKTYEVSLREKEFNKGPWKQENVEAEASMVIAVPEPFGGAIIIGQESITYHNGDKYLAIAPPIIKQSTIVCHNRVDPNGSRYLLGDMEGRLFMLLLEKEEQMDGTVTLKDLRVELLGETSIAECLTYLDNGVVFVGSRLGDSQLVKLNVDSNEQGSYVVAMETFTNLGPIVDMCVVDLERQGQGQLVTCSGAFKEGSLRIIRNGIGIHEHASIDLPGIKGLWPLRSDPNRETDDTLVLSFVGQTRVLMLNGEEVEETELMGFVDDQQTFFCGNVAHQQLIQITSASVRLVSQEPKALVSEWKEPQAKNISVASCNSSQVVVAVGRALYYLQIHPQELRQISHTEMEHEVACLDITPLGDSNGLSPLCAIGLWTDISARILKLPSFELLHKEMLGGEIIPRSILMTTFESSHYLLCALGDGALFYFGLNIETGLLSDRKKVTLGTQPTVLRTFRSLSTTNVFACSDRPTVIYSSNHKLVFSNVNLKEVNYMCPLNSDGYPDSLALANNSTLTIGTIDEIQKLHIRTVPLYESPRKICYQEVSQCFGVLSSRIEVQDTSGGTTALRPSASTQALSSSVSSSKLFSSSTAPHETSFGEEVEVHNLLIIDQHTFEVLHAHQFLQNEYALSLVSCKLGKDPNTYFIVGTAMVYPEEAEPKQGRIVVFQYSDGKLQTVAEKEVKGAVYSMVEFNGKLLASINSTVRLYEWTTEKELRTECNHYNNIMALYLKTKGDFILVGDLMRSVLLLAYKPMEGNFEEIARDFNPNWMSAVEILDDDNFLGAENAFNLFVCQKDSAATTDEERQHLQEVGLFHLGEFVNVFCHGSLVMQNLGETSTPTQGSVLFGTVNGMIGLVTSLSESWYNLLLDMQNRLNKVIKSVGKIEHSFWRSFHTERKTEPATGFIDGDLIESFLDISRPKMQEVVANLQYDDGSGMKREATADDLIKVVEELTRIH
Chain of GSPT1 (P15170 whole entry, the tested form may be a part): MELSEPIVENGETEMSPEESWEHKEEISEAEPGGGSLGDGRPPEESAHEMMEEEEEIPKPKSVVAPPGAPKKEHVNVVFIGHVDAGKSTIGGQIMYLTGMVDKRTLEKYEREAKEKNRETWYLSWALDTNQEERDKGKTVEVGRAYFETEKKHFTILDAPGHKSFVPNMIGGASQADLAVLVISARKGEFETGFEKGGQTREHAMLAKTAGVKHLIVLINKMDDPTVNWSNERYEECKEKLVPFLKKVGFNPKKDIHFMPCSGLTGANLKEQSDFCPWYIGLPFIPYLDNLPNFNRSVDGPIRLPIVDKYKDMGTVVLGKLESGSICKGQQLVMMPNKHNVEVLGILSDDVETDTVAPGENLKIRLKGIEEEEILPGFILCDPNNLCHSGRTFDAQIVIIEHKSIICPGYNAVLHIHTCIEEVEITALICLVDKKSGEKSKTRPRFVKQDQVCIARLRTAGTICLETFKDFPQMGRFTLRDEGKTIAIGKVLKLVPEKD
Chain of GSPT1 (Q96SW2 whole entry, the tested form may be a part): as the sequence (Q96SW2 whole entry) above
Chain of GSPT1 (Q16531 whole entry partner, the tested form may be a part): as the sequence (Q16531 whole entry partner) above

With `CC(C)(O)COc1c(COC(=O)Nc2ccc(Oc3ccc(F)cc3)cc2F)ccc2c1C(=O)N(C1CCC(=O)NC1=O)C2` (stereo not drawn) [Example 162, [2-(2,6-dioxopiperidin-3-yl)-4-(2-hydroxy-2-methylpropoxy)-3-oxo-2,3-dihydro-1H-isoindol-5-yl]methyl N-[2-fluoro-4-(4-fluorophenoxy)phenyl]carbamate], at GSPT1, the DC50 is > 14000 nM and the Dmax is 8%. In the assay on Phospho-Rb (Ser807/811), half-maximal inhibition (IC50) was put at 24 nM and the Emax amounted to 133%. For the same molecule, at Cyclin E1, the half-maximal degradation concentration (DC50) is 27 nM, the Dmax turned out to be 107% and the “Ratio of GSPT1 DC50/Cyclin E1 DC50” value is >521.

Consider `COc1c(COC(=O)Nc2ccc(Oc3ccc(F)c(Cl)c3)cc2C)ccc2c1C(=O)N(C1CCC(=O)NC1=O)C2` (stereo not drawn) [Example 83, [2-(2,6-dioxopiperidin-3-yl)-4-methoxy-3-oxo-2,3-dihydro-1H-isoindol-5-yl]methyl N-[4-(3-chloro-4-fluorophenoxy)-2-methylphenyl]carbamate], for which, at GSPT1, the half-maximal degradation concentration (DC50) was > 14000 nM and the Dmax amounted to 31%. Moreover, in the assay on Phospho-Rb (Ser807/811), inhibition was half-maximal at 172 nM (IC50) and the Emax was 117%. Moreover, at Cyclin E1, the DC50 was found to be 136 nM, the Dmax is 110% and the “Ratio of GSPT1 DC50/Cyclin E1 DC50” value is recorded as >103.

Regarding `O=C1CCC(N2Cc3ccc(COC(=O)Nc4ccc(Oc5ccc(F)cc5)cc4F)c(O[C@@H]4CCCOC4)c3C2=O)C(=O)N1` (stereo partly drawn) [Example 147, [2-(2,6-dioxopiperidin-3-yl)-4-[(3R)-oxan-3-yloxy]-3-oxo-2,3-dihydro-1H-isoindol-5-yl]methyl N-[2-fluoro-4-(4-fluorophenoxy)phenyl]carbamate], at GSPT1, the half-maximal degradation concentration (DC50) is > 14000 nM and the Dmax is 2%. Besides, in the assay on Phospho-Rb (Ser807/811), the IC50 is 43 nM and the Emax was 137%. For the same molecule, on Cyclin E1, it took 12 nM to reach half-maximal degradation (DC50), the Dmax amounted to 110% and the “Ratio of GSPT1 DC50/Cyclin E1 DC50” value is reported as >1,121.

(Values after US20250084056A1, “SUBSTITUTED OXOISOINDOLINYL PIPERIDINE-2,6-DIONE COMPOUNDS” (BRISTOL-MYERS SQUIBB COMPANY, priority 2023, published 2025).)
